Earlier results in patent publication US20260272907A1, “Therapeutic Tyrosine Kinase Inhibitors for Multiple Sclerosis” (Principia Biopharma Inc., priority 2022, published 2026).

System: RMS patients
Details: from Week 12; cited from earlier work

**Q.** Which “Reduction of new Gd-enhancing T1 lesions” value does the source give for `C=CC(=O)N1CCC(CNc2ncnc(N)c2-c2ccc(Oc3ccccc3)cc2)CC1` [evobrutinib] here?
**A.** meaningful reduction
